# Experiments:
# [1] = Plasma concentration / pharmacokinetics in mouse (competitive ELISA); type: in vivo; details: 300 μg per mouse, injected peritoneally, parameters in 24 h; for AUC: n = 3; for Cmax / Tmax: serum, ip, 300 ug/animal; for Cmax: n = 3, read-out: Cmax; for Tmax: n = 3, read-out: Tmax
# Procedure: Coating antigen: Dilute Tα1 detection antigen stock solution to a final concentration of 2 μg/mL with coating solution, and add it into the wells of ELISA plate for 0.1 mL per well, and incubate at 4° C. for 5 days. Then wash the ELISA plate 3 times with washing buffer, each 0.2 mL/well and 3 min/time. Add 0.2 mL blocking buffer to each well, incubate for 1.5 hours at 37° C., wash plate 2 times by washing buffer, and spin dried.
# Sample preparation: Weight sample accurately, dissolve it in saline to a concentration of 1.5 mg/mL. Administrate 0.2 Ml by injection to each mouse peritoneally. Collect blood sample in 3 min, 20 min, 40 min, 1 h, 2 h, 3 h, 6 h, 8 h, 12 h, and 24 h. Collect serum by centrifuge the blood samples for 5 minutes at 10000 rpm, stored at −20° C. in a freezer. o prepare test sample, […] was added by 0.1 mL 1:1500 rabbit anti-Tα1 serum (final concentration is 1:6000), and 0.2 mL CD-1® mouse serum, and […]. Prepare blank control at the same time. Total volume is 0.4 mL. Incubate for 2 hours at 37° C. To prepare standard sample, Tα1 0.1 mL with different concentrations from 0.0004 to 400 μg/mL was added by 0.1 mL 1:1500 rabbit anti-Tα1 serum (final concentration is 1:6000), and 0.2 mL CD-1® mouse serum. Prepare blank control at the same time. Total volume is 0.4 mL. Incubate for 2 hours at 37° C.
# Sample Testing Add the prepared test sample and standard sample to ELISA plate, 0.1 mL/well, reacting for 1 hour in 37° C. chamber. Wash the plates 3 times, spin dryed. Add substrate 0.1 mL/well for 10 minutes. Add 2 mol/L H2SO4 0.05 mL to each well to terminate the reaction. Measure the OD value at 450 nm. Plot the standard curve with the concentration of Tα1 standard sample as abscissa and OD value as vertical coordinate. Calculate the content of test sample according to this standard curve.
# [2] = Half-life in liver homogenate (HPLC); type: in vitro ADME; details: 37° C., sample 0.4 mg/mL or 0.8 mg/mL, read-out: t1/2 in liver homogenate (converted)
# Procedure: Experimental method: Prepare 0.4 mg/mL or 0.8 mg/mL sample aqueous solution in centrifuge tube, adding 50 μL liver homogenate. Then incubate for different time in 37° C. water bath. Terminate the reaction and precipitate liver homogenate protein by heating the mixture in boiling water for 5 minutes. Centrifuge it (10000 rpm) for 10 minutes. Analyze the supernatant by HPLC. The data was statistically analyzed by Origin Prof. 5.0.
# HPLC: Column temperature: 25° C.; Flow rate 1.0 mL/min; Detection wavelength: 200 nm; Mobile phase A: 0.1% TFA/H2O; Mobile phase B: 0.1% TFA/70% CH3CN.
# [3] = system: spleen cell; assay: Interferon-γ production of spleen cells stimulated by Con A (double antibody sandwich ELISA); type: cell-based; details: for Concentration of IFN-γ: Con A 0.5 μg/mL, 24 hours, n = 3; for Enhancement percentage: versus Con A alone
# Procedure: Prepare spleen cell suspension in sterile condition. Adjust cell concentration to 5×10^6 cell/mL by adding RPMI-1640 culture with 20% bovine serum. Add 0.5 mL cell suspension, 0.25 mL Con A (final concentration is 0.5 μg/mL) and 0.25 mL samples with different concentrations in 24-well plate; and add RPMI-1640 culture in control wells. Incubate the plates in a 5% CO2 chamber at 37° C. for 24 hours. Centrifuge and collect supernatant, test the content of IFN-γ in supernatant by double antibody sandwich ELISA. The protocol is according to the instruction on ELISA kit.
# [4] = system: T lymphocyte (spleen cell); assay: T lymphocyte proliferation stimulated by Con A (3H-TdR incorporation); type: cell-based, mouse; details: for 3H-TdR incorporation (cpm, x ± SD): Con A 0.5 μg/mL, 72 hours, n = 4; for Enhancement percentage: versus Con A alone
# Procedure: Sacrifice mouse by draining artery blood, remove spleen in sterile condition, and make it to spleen cell suspension. After red blood cell lysis, wash for 3 times, and stain with Trypan Blue to count the living cells. The amount of living cells should be more than 95%. Dilute the cell concentration to 5×10^6 cell/mL by adding RPMI-1640 culture with 10% bovine serum. Add spleen cell suspension to a sterilized 96-well plate for 100 μL per well. The total amount is 200 μL per well (including 50 μL Con A and 50 μL medicament). Each sample concentration is repeated fro 3-4 wells. Incubate the plate in a 5% CO2 chamber for 72 hours, add 10 μci/mL ^3H-TdR 20 μL per well 16 hours before termination of the incubation, giving rise to a final concentration of 1.0 μci (37.0 KBq)/mL. Collect cells on filter membrane by using Herveste 96 cell harvester, dried in 80° C. oven for 20 minutes or dried in air. Put the dried filter membrane into 1450-423 microBeta sample bag, add scintillation liquid, and measure radioactivity (cpm) in Perkin Elmer MicroBeta Trilux 1450 Scintillation Counter.
Substance,AUC [1] [ng·h/mL],Cmax [1] [ng/mL],Tmax [1] [min],half-life [2] [min],"Concentration of IFN-γ ([3]; Table 1-2, sample 1 μg/mL) [pg/mL]","Enhancement percentage ([3]; Table 1-2, sample 1 μg/mL)","Concentration of IFN-γ ([3]; Table 1-2, sample 10 μg/mL) [pg/mL]","Enhancement percentage ([3]; Table 1-2, sample 10 μg/mL)","Concentration of IFN-γ ([3]; Table 1-2, sample 100 μg/mL) [pg/mL]","Enhancement percentage ([3]; Table 1-2, sample 100 μg/mL)","3H-TdR incorporation (cpm, x ± SD) ([4]; Table 2-2, sample 10 μg/mL) [cpm]","Enhancement percentage ([4]; Table 2-2, sample 10 μg/mL)","3H-TdR incorporation (cpm, x ± SD) ([4]; Table 2-2, sample 50 μg/mL) [cpm]","Enhancement percentage ([4]; Table 2-2, sample 50 μg/mL)","3H-TdR incorporation (cpm, x ± SD) ([4]; Table 2-2, sample 100 μg/mL) [cpm]","Enhancement percentage ([4]; Table 2-2, sample 100 μg/mL)","Concentration of IFN-γ ([3]; Table 1-1, sample 1 μg/mL) [pg/mL]","Enhancement percentage ([3]; Table 1-1, sample 1 μg/mL)","Concentration of IFN-γ ([3]; Table 1-1, sample 10 μg/mL) [pg/mL]","Enhancement percentage ([3]; Table 1-1, sample 10 μg/mL)",further results
Ac-SDAAVDTSSECTTKDLKEKKEVVEEAEN-OH [BMJBT003],8710,5650,20,168,3428.6 ± 111.9,+5.2%,3732.2 ± 30.2,+14.5%,3990.8 ± 250.0,+22.5%,21825 ± 2216,+87.5%,20465 ± 2432,+77.3%,15240 ± 2369,+30.9%,–,–,–,–,–
"Ac-SDAAVDTSSEITTKDLKEKKEVVEEAEN-OH [Tα1, reference compound]",9220,10100,20,252,–,–,–,–,–,–,18315 ± 2194,+57.3%,17007 ± 1526,+46.1%,14383 ± 3225,+23.5%,1449.3 ± 334.3,+92.8%,1514.0 ± 102.1,+101.4%,"Concentration of IFN-γ ([3]; Table 1-1, sample 100 μg/mL): 1007.2 ± 31.3 pg/mL; Enhancement percentage ([3]; Table 1-1, sample 100 μg/mL): +34.0%; Concentration of IFN-γ ([3]; Table 1-3, sample 1 μg/mL): 3609.6 ± 167.8 pg/mL; Enhancement percentage ([3]; Table 1-3, sample 1 μg/mL): +18.2%; Concentration of IFN-γ ([3]; Table 1-3, sample 10 μg/mL): 3891.5 ± 106.1 pg/mL; Enhancement percentage ([3]; Table 1-3, sample 10 μg/mL): +27.4%; Concentration of IFN-γ ([3]; Table 1-3, sample 100 μg/mL): 4361.3 ± 87.8 pg/mL; Enhancement percentage ([3]; Table 1-3, sample 100 μg/mL): +42.8%; 3H-TdR incorporation (cpm, x ± SD) ([4]; Table 2-1, sample 10 μg/mL): 17871 ± 4635 cpm; Enhancement percentage ([4]; Table 2-1, sample 10 μg/mL): +32.5%; 3H-TdR incorporation (cpm, x ± SD) ([4]; Table 2-1, sample 50 μg/mL): 17007 ± 1526 cpm; Enhancement percentage ([4]; Table 2-1, sample 50 μg/mL): +26.1%; 3H-TdR incorporation (cpm, x ± SD) ([4]; Table 2-1, sample 100 μg/mL): 14624 ± 3253 cpm; Enhancement percentage ([4]; Table 2-1, sample 100 μg/mL): +6.6%"
Ac-SDAACDTSSEITTKDLKEKKEVVEEAEN-OH [BMJBT001],3090,448,20,228,3000.5 ± 56.1,−7.9%,3584.2 ± 31.6,+10.0%,3618.5 ± 93.8,+11.0%,19289 ± 4456,+65.7%,19972 ± 3287,+71.6%,21119 ± 5339,+81.4%,–,–,–,–,–
Ac-SDAAVDTSSEITTKDLKEKKEVVEEAENC-NH2 [BMJBT009],2120,443,60,24,–,–,–,–,–,–,–,–,–,–,–,–,1895.7 ± 49.8,+152.2%,1814.5 ± 105.5,+141.4%,"Concentration of IFN-γ ([3]; Table 1-1, sample 100 μg/mL): 672.1 ± 94.3 pg/mL; Enhancement percentage ([3]; Table 1-1, sample 100 μg/mL): −11.0%; 3H-TdR incorporation (cpm, x ± SD) ([4]; Table 2-1, sample 10 μg/mL): 24888 ± 2473 cpm; Enhancement percentage ([4]; Table 2-1, sample 10 μg/mL): +84.5%; 3H-TdR incorporation (cpm, x ± SD) ([4]; Table 2-1, sample 50 μg/mL): 24164 ± 2683 cpm; Enhancement percentage ([4]; Table 2-1, sample 50 μg/mL): +46.6%; 3H-TdR incorporation (cpm, x ± SD) ([4]; Table 2-1, sample 100 μg/mL): 20574 ± 2746 cpm; Enhancement percentage ([4]; Table 2-1, sample 100 μg/mL): +56.6%"

# Reference: US8080522B2, “Polyethlene glycol modifications of thymosin alpha-1” (Institute of Pharmacology and Toxicology Academy of …, priority 2005, dated 2011)
